Assay results published in patent US8952024B2, “Herbicidal pyrimidone derivatives” (E I du Pont de Nemours and Company, priority 2009, dated 2015).
Like-named read-outs stand apart in the source and are kept apart here.

Columns and labels:
Test in all cases: Test A pre-/postemergence plant response
Type in all cases: in vivo
[1] = tested on: pigweed (Amaranthus retroflexus); settings: for pest or weed control at 500 g/ha: read-out: Plant response rating, Pigweed
Outline: (§1)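 Greenhouse pots of loam/sand received directed preemergence soil sprays or postemergence sprays (plants 2–10 cm, 1–2 leaf stage), compounds formulated in non-phytotoxic solvent with surfactant. Injury was rated visually versus untreated controls after about ten days on a 0 (no effect) to 100 (complete control) scale.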

corn (Zea mays) = tested on: corn (Zea mays)
Outline: as §1

[2] = tested on: giant foxtail (Setaria faberii); settings: for pest or weed control at 125 g/ha / pest or weed control at 500 g/ha: Setaria faberi, 240 h
Outline: as §1

[3] = tested on: velvetleaf (Abutilon theophrasti); settings: for pest or weed control at 125 g/ha / pest or weed control at 500 g/ha: Abutilon theophrasti, 240 h
Outline: as §1

[4] = tested on: barnyardgrass (Echinochloa crus-galli); settings: for pest or weed control at 125 g/ha / pest or weed control at 500 g/ha: Echinochloa crus-galli, 240 h
Outline: as §1

[5] = tested on: morningglory (Ipomoea spp.); settings: for pest or weed control at 125 g/ha / pest or weed control at 500 g/ha: Ipomoea, 240 h
Outline: as §1

[6] = tested on: large crabgrass (Digitaria sanguinalis); settings: for pest or weed control at 125 g/ha / pest or weed control at 500 g/ha: Digitaria sanguinalis, 240 h
Outline: as §1

[7] = tested on: wheat (Triticum aestivum); settings: for plant injury at 125 g/ha / plant injury at 500 g/ha: Triticum aestivum, 240 h
Outline: as §1

[8] = Postemergence, 125 g ai/ha, visual injury, 0 to 100 scale (0 no effect, 100 complete control), approx. ten days
[9] = Postemergence, 500 g ai/ha, 0 to 100 scale, 0 = no effect, 100 = complete control, approx. ten days
[10] = Preemergence, 125 g ai/ha, 0 to 100 scale, 0 = no effect, 100 = complete control
[11] = Preemergence, 500 g ai/ha, visual injury, 0 to 100 scale (0 no effect, 100 complete control), approx. ten days

Which results are given for `COc1cccc(-n2c(-c3ccccc3)ncc(C(=O)C3=C(O)CCCC3=O)c2=O)c1` [Compound 19]?
Pigweed plant response rating [1, 8]: 80; Plant response rating, Pigweed [1, 9]: 100; Plant response rating, Pigweed [1, 10]: 80; Plant response rating, Pigweed [1, 11]: 90; Corn plant response rating (corn (Zea mays); [8]): 0; Plant response rating, Corn (corn (Zea mays); [9]): 10; Plant response rating, Corn (corn (Zea mays); [10]): 0; Plant response rating, Corn (corn (Zea mays); [11]): 0; Foxtail, Giant plant response rating [2, 8]: 20; Plant response rating, Foxtail, Giant [2, 9]: 50; Plant response rating, Foxtail, Giant [2, 10]: 10; Plant response rating, Foxtail, Giant [2, 11]: 30; Velvetleaf plant response rating [3, 8]: 100; Plant response rating, Velvetleaf [3, 9]: 100; Plant response rating, Velvetleaf [3, 10]: 50; Plant response rating, Velvetleaf [3, 11]: 100; Barnyardgrass plant response rating [4, 8]: 0; Plant response rating, Barnyardgrass [4, 9]: 70; Plant response rating, Barnyardgrass [4, 10]: 10; Plant response rating, Barnyardgrass [4, 11]: 90; Morningglory plant response rating [5, 8]: 0; Plant response rating, Morningglory [5, 9]: 60; Plant response rating, Morningglory [5, 10]: 0; Plant response rating, Morningglory [5, 11]: 50; Crabgrass, Large plant response rating [6, 8]: 0; Plant response rating, Crabgrass, Large [6, 9]: 20; Plant response rating, Crabgrass, Large [6, 10]: 20; Plant response rating, Crabgrass, Large [6, 11]: 80; Wheat plant response rating [7, 8]: 0; Plant response rating, Wheat [7, 9]: 0; Plant response rating, Wheat [7, 10]: 0; Plant response rating, Wheat [7, 11]: 0

Which pest or weed control at 125 g/ha ([1]; Amaranthus retroflexus, post-emergence, 240 h, Postemergence, 125 g ai/ha, visual injury, 0 to 100 scale (0 no effect, 100 complete control), approx. ten days, read-out: Pigweed plant response rating) does the source give for `CCn1ncc(C(=O)c2cnc(-c3ccccc3)n(Cc3ccccc3)c2=O)c1OS(=O)(=O)c1ccc(C)cc1` [Compound 21, 5-[[1-ethyl-5-[[(4-methylphenyl)sulfonyl]oxy]-1H-pyrazol-4-yl]carbonyl]-2-phenyl-3-(phenylmethyl)-4(3H)-pyrimidinone] here?
The pest or weed control at 125 g/ha was 0%.

And the pest or weed control at 500 g/ha ([1]; Amaranthus retroflexus, post-emergence, 240 h, Postemergence, 500 g ai/ha, 0 to 100 scale, 0 = no effect, 100 = complete control, approx. ten days)?
Its pest or weed control at 500 g/ha is 50%.

And the pest or weed control at 500 g/ha ([1]; Amaranthus retroflexus, pre-emergence, 240 h, Preemergence, 500 g ai/ha, visual injury, 0 to 100 scale (0 no effect, 100 complete control), approx. ten days)?
Its pest or weed control at 500 g/ha is 70%.

And the plant injury at 125 g/ha (corn (Zea mays); Zea mays, post-emergence, 240 h, Postemergence, 125 g ai/ha, visual injury, 0 to 100 scale (0 no effect, 100 complete control), approx. ten days, read-out: Corn plant response rating)?
Its plant injury at 125 g/ha is 0%.

And the Corn plant response rating (crop injury, 0 = no effect, 100 = complete kill) at 500 g/ha (corn (Zea mays); Zea mays, post-emergence, 240 h, Postemergence, 500 g ai/ha, 0 to 100 scale, 0 = no effect, 100 = complete control, approx. ten days)?
The Corn plant response rating (crop injury, 0 = no effect, 100 = complete kill) at 500 g/ha was 0%.

And the Corn plant response rating (crop injury, 0 = no effect, 100 = complete kill) at 125 g/ha (corn (Zea mays); Zea mays, pre-emergence, 240 h, Preemergence, 125 g ai/ha, 0 to 100 scale, 0 = no effect, 100 = complete control)?
The Corn plant response rating (crop injury, 0 = no effect, 100 = complete kill) at 125 g/ha was 0%.

What about the Corn plant response rating (crop injury, 0 = no effect, 100 = complete kill) at 500 g/ha (corn (Zea mays); Zea mays, pre-emergence, 240 h, Preemergence, 500 g ai/ha, visual injury, 0 to 100 scale (0 no effect, 100 complete control), approx. ten days) of the same compound?
The Corn plant response rating (crop injury, 0 = no effect, 100 = complete kill) at 500 g/ha was 0%.

And the pest or weed control at 125 g/ha ([2]; post-emergence, Postemergence, 125 g ai/ha, visual injury, 0 to 100 scale (0 no effect, 100 complete control), approx. ten days, read-out: Foxtail, Giant plant response rating)?
The pest or weed control at 125 g/ha was 0%.

What about the pest or weed control at 500 g/ha ([2]; post-emergence, Postemergence, 500 g ai/ha, 0 to 100 scale, 0 = no effect, 100 = complete control, approx. ten days, read-out: Plant response rating, Foxtail, Giant) of the same compound?
The pest or weed control at 500 g/ha was 0%.

What about the pest or weed control at 125 g/ha ([2]; pre-emergence, Preemergence, 125 g ai/ha, 0 to 100 scale, 0 = no effect, 100 = complete control, read-out: Plant response rating, Foxtail, Giant) of the same compound?
The pest or weed control at 125 g/ha was 0%.

And the pest or weed control at 500 g/ha ([2]; pre-emergence, Preemergence, 500 g ai/ha, visual injury, 0 to 100 scale (0 no effect, 100 complete control), approx. ten days, read-out: Plant response rating, Foxtail, Giant)?
The pest or weed control at 500 g/ha was 10%.

What about the pest or weed control at 125 g/ha ([3]; post-emergence, Postemergence, 125 g ai/ha, visual injury, 0 to 100 scale (0 no effect, 100 complete control), approx. ten days, read-out: Velvetleaf plant response rating) of the same compound?
Its pest or weed control at 125 g/ha is 30%.

What about the pest or weed control at 500 g/ha ([3]; post-emergence, Postemergence, 500 g ai/ha, 0 to 100 scale, 0 = no effect, 100 = complete control, approx. ten days, read-out: Plant response rating, Velvetleaf) of the same compound?
Its pest or weed control at 500 g/ha is 70%.

And the pest or weed control at 125 g/ha ([3]; pre-emergence, Preemergence, 125 g ai/ha, 0 to 100 scale, 0 = no effect, 100 = complete control, read-out: Plant response rating, Velvetleaf)?
The pest or weed control at 125 g/ha was 0%.

And the pest or weed control at 500 g/ha ([3]; pre-emergence, Preemergence, 500 g ai/ha, visual injury, 0 to 100 scale (0 no effect, 100 complete control), approx. ten days, read-out: Plant response rating, Velvetleaf)?
Its pest or weed control at 500 g/ha is 0%.

What about the pest or weed control at 125 g/ha ([4]; post-emergence, Postemergence, 125 g ai/ha, visual injury, 0 to 100 scale (0 no effect, 100 complete control), approx. ten days, read-out: Barnyardgrass plant response rating) of the same compound?
Its pest or weed control at 125 g/ha is 0%.

What about the pest or weed control at 500 g/ha ([4]; post-emergence, Postemergence, 500 g ai/ha, 0 to 100 scale, 0 = no effect, 100 = complete control, approx. ten days, read-out: Plant response rating, Barnyardgrass) of the same compound?
The pest or weed control at 500 g/ha was 10%.

And the pest or weed control at 125 g/ha ([4]; pre-emergence, Preemergence, 125 g ai/ha, 0 to 100 scale, 0 = no effect, 100 = complete control, read-out: Plant response rating, Barnyardgrass)?
The pest or weed control at 125 g/ha was 0%.

What about the pest or weed control at 500 g/ha ([4]; pre-emergence, Preemergence, 500 g ai/ha, visual injury, 0 to 100 scale (0 no effect, 100 complete control), approx. ten days, read-out: Plant response rating, Barnyardgrass) of the same compound?
The pest or weed control at 500 g/ha was 0%.

And the pest or weed control at 125 g/ha ([5]; post-emergence, Postemergence, 125 g ai/ha, visual injury, 0 to 100 scale (0 no effect, 100 complete control), approx. ten days, read-out: Morningglory plant response rating)?
The pest or weed control at 125 g/ha was 0%.

And the pest or weed control at 500 g/ha ([5]; post-emergence, Postemergence, 500 g ai/ha, 0 to 100 scale, 0 = no effect, 100 = complete control, approx. ten days, read-out: Plant response rating, Morningglory)?
Its pest or weed control at 500 g/ha is 0%.

What about the pest or weed control at 125 g/ha ([5]; pre-emergence, Preemergence, 125 g ai/ha, 0 to 100 scale, 0 = no effect, 100 = complete control, read-out: Plant response rating, Morningglory) of the same compound?
Its pest or weed control at 125 g/ha is 0%.

What about the pest or weed control at 500 g/ha ([5]; pre-emergence, Preemergence, 500 g ai/ha, visual injury, 0 to 100 scale (0 no effect, 100 complete control), approx. ten days, read-out: Plant response rating, Morningglory) of the same compound?
Its pest or weed control at 500 g/ha is 0%.

And the pest or weed control at 125 g/ha ([6]; post-emergence, Postemergence, 125 g ai/ha, visual injury, 0 to 100 scale (0 no effect, 100 complete control), approx. ten days, read-out: Crabgrass, Large plant response rating)?
The pest or weed control at 125 g/ha was 0%.

And the pest or weed control at 500 g/ha ([6]; post-emergence, Postemergence, 500 g ai/ha, 0 to 100 scale, 0 = no effect, 100 = complete control, approx. ten days, read-out: Plant response rating, Crabgrass, Large)?
Its pest or weed control at 500 g/ha is 10%.

What about the pest or weed control at 125 g/ha ([6]; pre-emergence, Preemergence, 125 g ai/ha, 0 to 100 scale, 0 = no effect, 100 = complete control, read-out: Plant response rating, Crabgrass, Large) of the same compound?
The pest or weed control at 125 g/ha was 0%.

And the pest or weed control at 500 g/ha ([6]; pre-emergence, Preemergence, 500 g ai/ha, visual injury, 0 to 100 scale (0 no effect, 100 complete control), approx. ten days, read-out: Plant response rating, Crabgrass, Large)?
Its pest or weed control at 500 g/ha is 20%.

And the plant injury at 125 g/ha ([7]; post-emergence, Postemergence, 125 g ai/ha, visual injury, 0 to 100 scale (0 no effect, 100 complete control), approx. ten days, read-out: Wheat plant response rating)?
Its plant injury at 125 g/ha is 0%.

What about the plant injury at 500 g/ha ([7]; post-emergence, Postemergence, 500 g ai/ha, 0 to 100 scale, 0 = no effect, 100 = complete control, approx. ten days, read-out: Plant response rating, Wheat) of the same compound?
Its plant injury at 500 g/ha is 0%.

And the plant injury at 125 g/ha ([7]; pre-emergence, Preemergence, 125 g ai/ha, 0 to 100 scale, 0 = no effect, 100 = complete control, read-out: Plant response rating, Wheat)?
The plant injury at 125 g/ha was 0%.

And the plant injury at 500 g/ha ([7]; pre-emergence, Preemergence, 500 g ai/ha, visual injury, 0 to 100 scale (0 no effect, 100 complete control), approx. ten days, read-out: Plant response rating, Wheat)?
Its plant injury at 500 g/ha is 0%.
